# Laboratory results reported in ChEMBL document CHEMBL3507680, “University of Dundee, Gates Library screen for HepG2 cell viability”.
# Experiment: Human HepG2 cell viability assay in 384 well format
# Format: toxicity, cell-based
# Set-up: dose 125 nL, time 70.5 hour; concentration not given beside the values
# Settings: HepG2 cells, read-out: Inhibition
row,SMILES,cytotoxicity at 70.5 h
1,Cc1noc(C)c1CC(=O)N1CCCC(Cc2ccccn2)C1 (configuration not stated),-7.69%
2,O=C(O)c1ccc(=O)n(CC(c2ccc(Cl)cc2)N2CCCCCC2)c1 (configuration not stated),-8.13%
3,COCC(=O)N1C[C@@H](c2cccc(F)c2)[C@H]2[C@H]1CCCCCN2C(C)=O,7.2%
4,Cc1ccnc(C2CN(c3ncccn3)C2)n1,-12.1%
5,CC(=O)N1CCCCC[C@@H]2[C@@H]1[C@H](c1cccc(F)c1)CN2CCC(N)=O,-9.36%
6,CCC(=O)N1CCCC(C(=O)c2cnn(-c3ccc(F)cc3)c2N)C1 (configuration not stated),-0.996%
7,CC(=O)N1CCC1c1cc(N2CC(O)C2)nc(C)n1 (configuration not stated),-11.3%
8,CNC(=O)C1(c2cnccn2)CCCN1C(=O)Cc1ccsc1 (configuration not stated),-6.75%
9,CC(=O)N1CCC(C(=O)c2cnn(-c3ccccc3)c2N)C1 (configuration not stated),-7.91%
10,NCCCC(=O)NCC1(O)CCN(c2ccnc3cccnc23)C1 (configuration not stated),-7.06%
11,O=C1CN(C(=O)C2CN(c3cccc(Cl)c3)CCO2)CCN1 (configuration not stated),-7.93%
12,O=C1CN(C(=O)C2CN(c3ccccc3)CCO2)CCN1 (configuration not stated),-5.72%
13,CO[C@H]1C[C@@H]2CN(C(=O)c3cc4ccc(F)cc4[nH]3)C[C@@H]2C1,-6.74%
14,Fc1cccc(Cc2cncc(C3CCCN3C3CCOCC3)n2)c1 (configuration not stated),-5.65%
15,CCn1c(C)nc2cc(NC(=O)CC3CCCCO3)ccc21 (configuration not stated),-7.28%
16,Cc1nc(C2CCN(S(C)(=O)=O)CC2)nc2c1CCC(=O)N2CC(C)C,-1.36%
17,CC(=O)N1CCC1c1cc(N2CCNC(=O)C2)nc(C)n1 (configuration not stated),-5.23%
18,O=C1CO[C@H]2CCN(C(=O)c3ccc4c(c3)CCCC4)CC[C@@H]2N1,-8.53%
19,CCC(=O)N1CCC(c2nc(C)ncc2-c2ccncc2)CC1,-7.07%
20,CCS(=O)(=O)N1CCC(c2nc(C)c(C)c(N3CCCC3)n2)CC1,2.09%
21,CCN(Cc1ccccc1O)CC1(C)Cc2c(N)nc(N)nc2O1 (configuration not stated),-3.26%
22,CCN(Cc1ccncc1)CC1(C)Cc2c(N)nc(N)nc2O1 (configuration not stated),-2.81%
23,O=C(O)c1ccc(=O)n(CC(c2ccc(Cl)cc2)N2CCOCC2)c1 (configuration not stated),-6.42%
24,CCN(Cc1cscn1)CC1(C)Cc2c(N)nc(N)nc2O1 (configuration not stated),6.12%

row,SMILES,cytotoxicity at 70.5 h
1,CCN(CCCc1ccccc1)CC1(C)Cc2c(N)nc(N)nc2O1 (configuration not stated),12.9%
2,CNC(=O)c1cc(C)nc(C2(C)CCCN2c2cc(C)ncn2)n1 (configuration not stated),-6.05%
3,CC(C)CC(=O)N1CCCC1c1cc(CO)[nH]n1 (configuration not stated),-4.42%
4,OCC(CO)N1CCCC(Cc2cnc(Nc3ccccn3)cn2)C1 (configuration not stated),-3.34%
5,CCC(CC)C(=O)N1CCCc2c(cnn2C)C1,-1.89%
6,O=C1NC2(CCN(CC(=O)N3CCOCC3)CC2)Nc2ccccc21,-2.3%
7,CC(C)c1cc(C(F)(F)F)n2nc(C3CCN(S(C)(=O)=O)C3)cc2n1 (configuration not stated),-1.05%
8,O=C1NC2(CCCN(C(=O)CCn3cccn3)C2)Oc2ccccc21 (configuration not stated),1.47%
9,COc1ccccc1N1CCC(NCc2c(C)noc2C)C1 (configuration not stated),30%
10,CCc1ccccc1OCC(=O)Nc1ccnc(OCCN(C)C)c1,3.03%
11,NC(=O)CN(Cc1cccc(Oc2ccccc2)c1)C(=O)C1CC1,-4.97%
12,O=S(=O)(Nc1ccc(N2CCOCC2)cn1)c1cccc(F)c1,-3.99%
13,Cc1ccc(S(=O)(=O)Nc2ccc(N3CCOCC3)cn2)cc1,-3.69%
14,COc1ccc(C(CN2CCN(C)CC2)Nc2ncccn2)cc1 (configuration not stated),0.96%
15,COc1cc(C)ccc1OCC(=O)Nc1ccnc(OCCN(C)C)c1,39.3%
16,COc1ccnc(N(C)Cc2c(C)noc2C)n1,-3.59%
17,CC(=O)N1CCCN(C(=O)NC(C)c2ccc(C)o2)CC1 (configuration not stated),1.15%
18,CC(C(=O)NCc1cccs1)N1CCN(Cc2nccn2C)CC1 (configuration not stated),13.2%
19,COc1ccc(SC(C)C(=O)N2CCC(C(=O)N3CCCC3)CC2)cc1 (configuration not stated),-5.49%
20,COc1ccc(SC(C)C(=O)N2CCC(O)CC2)cc1 (configuration not stated),-4.3%
21,N#Cc1ccccc1OCCN1CCC(C(=O)N2CCOCC2)CC1,-9.69%
22,Cc1cc(C2CCCN2C(=O)c2ccc(OCC(N)=O)cc2)no1 (configuration not stated),-11.5%
23,O=C(CCn1cncn1)NC1CCS(=O)(=O)C1 (configuration not stated),-11%
24,Cc1ccc(OCCCNC(=O)C(C)Sc2nncn2C)cc1 (configuration not stated),-12.1%

row,SMILES,cytotoxicity at 70.5 h
1,CC(C)c1nc2n(n1)CC(Nc1ncnc3ccccc13)CC2 (configuration not stated),-13%
2,CN(C)S(=O)(=O)NC(=O)CC(c1ccccc1)C(F)(F)F (configuration not stated),-2.07%
3,COCC(C)(C)NC(=O)CC(c1ccccc1)C(F)(F)F (configuration not stated),-15.6%
4,Cc1nc2n(n1)CC(Nc1ncnc3c1CCC3)CC2 (configuration not stated),-10.2%
5,O=C(C[S+]([O-])Cc1csc(C2CCCC2)n1)Nc1ccccc1 (configuration not stated),-17.5%
6,c1nc2c(c(NC3CCc4ncnn4C3)n1)CCC2 (configuration not stated),-8.75%
7,N#Cc1cccc(OCCN2CCC(C(=O)N3CCOCC3)CC2)c1,-11.2%
8,CCC(C)(C)NC(=O)C[S+]([O-])Cc1csc(C2CCCC2)n1 (configuration not stated),11%
9,CCN(CC)c1ncc(Cl)c(C(=O)NC2CCC(O)CC2)n1 (configuration not stated),-0.431%
10,O=C(CCn1cncn1)NCC1CCCC1,-6.57%
11,COCCN(Cc1ccccn1)C(=O)CC1OCCc2sccc21 (configuration not stated),-9.62%
12,CCCc1nn(Cc2csc(C(C)C)n2)c(=O)o1,-7.07%
13,N#Cc1ccccc1OCCN1CCN(C(=O)C2CCCC2)CC1,7.87%
14,COc1ccc2c(c1)CC(NCc1cccc(NC(C)=O)c1)CC2 (configuration not stated),-5.85%
15,Cc1cnc(N2CCC(OCCN3CCCCC3)C2)nc1C (configuration not stated),-4.38%
16,COCCN(Cc1ccccn1)C(=O)CC1OCCc2ccccc21 (configuration not stated),-6.98%
17,CCN1CCC(NC(=O)CNC(C)Cn2cccn2)CC1 (configuration not stated),11.4%
18,Cn1cc(C(=O)N2CCN(c3ccccc3)CC2)ccc1=O,-6.86%
19,CCCC(NC(=O)c1cc(C2CC2)[nH]n1)c1nnc2ccccn12 (configuration not stated),-12.1%
20,Cc1cc(C)c(CNC(=O)NC2CCN(C(=O)C(C)C)CC2)c(C)c1,-10.6%
21,CC(C)(C)NCC(=O)N1CCCC(n2ccnc2)C1 (configuration not stated),-9.3%
22,Cc1cnn(CCNCc2nccn2CC(F)(F)F)c1,1.15%
23,COc1ccc(C2(c3nc(-c4cnn(C)c4)no3)CCOCC2)cc1,-3.48%
24,Cc1cnn(CC(C)NCC(=O)NC2CCOCC2)c1 (configuration not stated),18.5%

row,SMILES,cytotoxicity at 70.5 h
1,CC(=O)Nc1ccc(CNC2COc3c2ccc(C)c3C)cc1 (configuration not stated),15.7%
2,CCc1ccccc1CNC(=O)CNC(=O)C(C)(C)C,-6.65%
3,CN(c1cccnc1N1CCCC1)S(=O)(=O)c1cccs1,12.7%
4,O=C(C[S+]([O-])c1ccc(F)c(F)c1)NCc1cc(F)cc(F)c1 (configuration not stated),-2.62%
5,COc1ccccc1[S+]([O-])CC(=O)NCc1cc(F)cc(F)c1 (configuration not stated),2.23%
6,CC(C)c1nc(C(=O)N(C)c2ccc(Br)cn2)cs1,-8.09%
7,COc1ccccc1NC(=O)CC(C)NCc1scnc1C (configuration not stated),-4.53%
8,CC(C)c1ocnc1C(=O)N1CCC2(CC1)OCCO2,-8.01%
9,CCOCCN(C)C(c1cccnc1)c1ccc(F)cc1F (configuration not stated),-3.04%
10,CCC(CCNCc1cnc(C2CCC2)s1)N1CCCC1=O (configuration not stated),26.8%
11,O=C(OCc1cccs1)c1cccc(C(=O)N2CCCC2)n1,-8.17%
12,Cc1nnc(CN2CCCC2c2ccc3c(c2)OCCO3)n1C (configuration not stated),-3.49%
13,CC(C)C(C)N(C)Cc1nnc(-c2ccc(Br)s2)o1 (configuration not stated),-3%
14,COCCOc1ccc(S(=O)(=O)Nc2cccnc2O)cc1C,-4.13%
15,CC(C)(C)OC(=O)NCCC(=O)NCC(O)c1cccc(F)c1 (configuration not stated),-0.447%
16,Cn1cnnc1CNC(=O)c1ccc(Br)cc1O,-3.54%
17,COc1cc2nc(C)sc2cc1NC(=O)C(C)NC(N)=O (configuration not stated),1.54%
18,COc1cc2nc(C)sc2cc1NC(=O)CN(C)C(C)C,4.08%
19,Cn1ccc2c(C(=O)NCC3(C(N)=O)CCOCC3)cccc21,1.25%
20,CNC(=O)NC(=O)CN(C)C(c1cccnc1)c1ccc(F)cc1F (configuration not stated),-1.87%
21,CCCC(=O)NC(Cc1ccc(C)cc1)c1ccccn1 (configuration not stated),2.81%
22,Cc1ccc(CC(NC(=O)Cn2cnnn2)c2ccccn2)cc1 (configuration not stated),-1.31%
23,CSCC(=O)NC(Cc1ccc(C)cc1)c1ccccn1 (configuration not stated),0.833%
24,Cc1cc(C)n(C2CCCN(C(=O)CN(C)c3cnccn3)C2)n1 (configuration not stated),-0.822%

row,SMILES,cytotoxicity at 70.5 h
1,O=C1NCCCC1NC(=O)C1(c2cccc(Cl)c2)CCC1 (configuration not stated),-0.27%
2,CCCNC(=O)CCC(=O)Nc1cc2sc(C)nc2cc1OC,0.815%
3,O=C(OCCF)c1cccc(C(=O)N2CCCC2)n1,26.7%
4,Cc1ccc(CC(NC(=O)CN(C)C2CC2)c2ccccn2)cc1 (configuration not stated),-1.04%
5,CCCn1nc(C(=O)N(C)Cc2nnc3n2CCC3)ccc1=O,-6.95%
6,Cc1cnn(CCC(=O)NCc2ccc(N(C)C)c(C)c2)c1,-5.29%
7,COc1cccc(-c2cc(NCc3cscn3)n(C)n2)c1,-7.72%
8,CCCN1CCC(NCc2cccc(CN3CCOC(C)C3)c2)CC1 (configuration not stated),27.7%
9,N#CCCN(CCC#N)C(=O)c1cccc(N2CCNC2=O)c1,-7.77%
10,N#Cc1cccc(S(=O)(=O)NC2CCN(CC(F)(F)F)C2)c1 (configuration not stated),-15.4%
11,Cc1cnn(C2CCCN(C(=O)c3cc(-c4ccccc4C)n[nH]3)C2)c1 (configuration not stated),9.61%
12,Cn1ccnc1CN1CCN(Cc2cc(-c3ccccc3)no2)CC1,-16.7%
13,Cn1cnnc1C1CCN(c2nc3ccccc3o2)CC1,-5.83%
14,COc1ccc(C2CCN(S(=O)(=O)CCCC#N)CC2)cc1,-9.02%
15,Cc1nc(C2CCNC2)nc2c1CCC(=O)N2CC(C)C (configuration not stated),-3.62%
16,CCOc1cc2c(cc1CNC(Cc1cccs1)c1nccs1)OCO2 (configuration not stated),1.33%
17,CC(C)(CN)NS(=O)(=O)c1c(F)cccc1F,2.67%
18,Cc1c(F)cccc1S(=O)(=O)NCCN,-0.256%
19,COc1ccc(CN)c(OC(F)F)c1,-10.1%
20,NCc1ccc(OC(F)F)cc1OC(F)F,-15.9%
21,c1cncc(CN2CCC(c3ccc4c(c3)OCO4)CC2)c1,19.4%
